Data set [1] deals with A549 human non-small cell lung cancer cell line. The data set is described as follows: 72-hour (long term) cell killing effects. Format: cell-based. Particulars: CCK8. How it is done: Cell lines and Culture: Cell line A549 was cultured in DMEM medium (Gibco, Life Technologies, China). 10% HI fetal bovine serum was purchased from Gibco, Life Technologies, USA and 1% penicillin/streptomycin was obtained from Hyclone.
Approx. 2,000 cells in 50 μL complete medium were plated on each well of a 96-well plate and incubated at 37° C., 5% CO2 overnight. Drugs at concentrations of 0.02 μM to 10 μM were dissolved in 0.1% DMSO, followed by addition into each well. After incubation for 72 hours, 10 μL CCK8 (Dojindo) was added into each well, followed by incubation at 37° C. for another 4 hours. The OD values were obtained by TECAN Microplate Reader at 450 nm.
Processing of Compounds: For in vitro tests, compounds were directly dissolved in 10 mM DMSO and stored at −20° C.

A short description of data set [2]: Pharmacokinetics and organ distribution after intravenous administration of Sunitinib, Compound 1 and Compound 2 in mice. Particulars: mouse, in vivo. Also noted: AUCiv: unit not given beside the values. The source says:
Relative Exposure(RE)=AUCi sample/AUCi control
AUCi—area under curve for the i^th organ or tissue; RE>1 indicates targeting at the organ or tissue, with larger RE indicating greater targeting; RE≦1 indicates non-targeting.
RTE refers to the multiple of the percent of drug content in a tissue of sample group with respect to total drug amount in the body vs. that in a control group. Positive RTE values indicate enhanced targeting effects and the more positive the more the multiple of enhancement and the more the enhanced targeting. In contrast, negative RTE values indicate reduced targeting effects. Value 0 indicate no influence to the tissue.
0.083 h, 0.25 h, 0.5 h, 1 h, 3 h, 8 h post injection, blood was taken by eyeball removal and the mice were sacrificed by cervical dislocation. Tissues were perfused with normal saline and livers and kidneys were removed and cleaned with normal saline. The blood samples were centrifuged to obtain supernatants and stored at −20° C. 50 μL plasma sample and 50 μL internal standard (clozapine) working solution was vortexed with 300 μL MeOH and then centrifuged. 150 μL upper organic phase was obtained and mixed with 150 μL water, followed by centrifugation. 10 μL supernatant was sampled for analysis. The tissue samples were weighted and mixed homogeneously with 10 times weight of water. Since the samples were 10-time diluted, the concentration of the tissue would be 10 times the results determined. The heart tissue was 5-time diluted. 100 μL homogenate was mixed with 50 μL internal standard (clozapine) working solution and 300 μL MeOH and then centrifuged. 150 μL upper organic phase was obtained and mixed with 150 μL water, followed by centrifugation. 10 μL supernatant was sampled for analysis.

The nature of another data set: in vivo. Also noted: AUCpo: unit not given beside the values. In kind it is in vivo. The note with it: mouse, in vivo. The text has this: Animal experiments: 24 mice in each group were divided into 8 sub-groups.
For the next data set, the system named is pSTAT3. The data set is described as follows: Effects on STAT3 phosphorylation in A549 cell line. Format: cell-based, human. The note with it: 10 μM. Here is the method: (§1) For in vitro tests, compounds were directly dissolved in 10 mM DMSO and stored at −20° C. For in vivo tests, the compounds were dissolved in DMSO and neutralized by Tween 80 (DMSO:Tween=1:1) and further neutralized by PBS (pH 7.4). The final concentrations of DMSO and Tween-80 were 5%.

For data set [3], the system named is A549; NCI-H460; 786-O; Caki-1; HT-29; MCF-7. The data set is described as follows: 72 hour cytotoxicity (CCK8) in different cell lines. In kind it is cell-based, human.
Excerpt: A549 human non-small cell lung cancer cell line, NCI-H460 human non-small cell lung cancer cell line, 786-O human renal cell line, Caki-1 human renal cell line, HT-29 human colon cancer cell line, MDA-MB-231 human breast cancer cell line, and MCF-7 human breast cancer cell line was purchased from Chinese Academy of Science Shanghai Branch. PLC/PRF-5 human hepatoma cell line and Hepal-6 mouse hepatoma cell line were obtained from Institute of Biochemistry and Cell Biology, SIBS, CAS (SIBCB). Cell lines A549, Caki-1, HT-29, MDA-MB-231, MCF-7, PLC/PRF-5 and Hepal-6 were cultured in DMEM medium (Gibco, Life Technologies, China) and cell lines NCI-H460 and 786-O were cultured in RPMI-1640 medium (Gibco, Life Technologies, China). 10% HI fetal bovine serum was purchased from Gibco, Life Technologies, USA and 1% penicillin/streptomycin was obtained from Hyclone.
Approx. 2,000 cells in 50 μL complete medium were plated on each well of a 96-well plate and incubated at 37° C., 5% CO2 overnight. Drugs at concentrations of 0.02 to 10 μM were dissolved in 0.1% DMSO, followed by addition into each well. After incubation for 72 hours, 10 μL CCK8 (Dojindo) was added into each well, followed by incubation at 37° C. for another 4 hours. The OD values were obtained by TECAN Microplate Reader at 450 nm.
as §1

In the next data set the test system is 786-O cell or A549 cell. As to the kind of experiment: Cell morphology and survival rate after 4 to 8 hours incubation. Particulars: for cell survival: 786-O cell or A549 cell, incubated for 8 hours; for cell morphology: cancer cells incubated for 4 hours. In kind it is cell-based, human.
A short description of data set [4]: Acute toxicity test: maximum tolerance dosage (MTD) determination. In kind it is in vivo, BALB/c mice. How it is done:
Methods: Femal BALB/c mice, 4-5 weeks old, weighted greater than 17 g, were used for the test. […] The body weights and conditions of the mice were recorded.
In contrast, the body weights of mice in compound 2 group increased 6.0% in average.
To further explore the toxicity of the compounds, blood was collected after 14-day treatment of drugs and critical biochemical index were analyzed.

The nature of data set [5]: Stability of compounds 1 and 2 in MeOH stock solution and with biomass. Format: physicochemical. The text has this:
No prodrug was detected in organs except for spleen during processing. […] The prodrugs may be converted to Sunitinib or other metabolite during processing or in vivo.

The next data set concerns cancer cell xenograft. The data set is described as follows: Pharmacodynamic tests on mice xenograft transplantation model. In kind it is in vivo. Particulars: intraperitoneally injected 1.5, 7.5, 30 mg/kg once a day for 2 weeks. How it is done: as §1
5×10^6 cancer cells were subcutaneously injected to the right side of mouse. Drug was intraperitoneally injected at dosages of 1.5 mg/kg, 7.5 mg/kg, 30 mg/kg to the mice, once a day, for 2 weeks when average tumor size reached 75 to 150 mm^3. The size of the tumor was measured every other day. […] Compound 1 had less efficacy.
We then performed the test through oral route. 5×10^6 cancer cells were subcutaneously injected to the right side of mouse. Drug was orally administered at dosages of 5 mg/kg, 15 mg/kg, 45 mg/kg to the mice, once a day, for 2 weeks when average tumor size reached 75 to 150 mm^3. The size of the tumor was measured every other day.

Setting [6] is: blood after 14-day treatment, 200 mg/kg.
The mark [7] stands for this setting: oral once a day for 14 days, 175 mg/kg.
Where [8] appears, read: repeated test, oral once a day, 200 mg/kg.

Where two headings read alike, the source gives them in different places.

In general, IC50 refers to the concentration at which inhibition is half-maximal. On to `CCN(CC)CCNC(=O)c1c(C)[nH]c(/C=C2\C(=O)N(COC(=O)c3ccc(OC)cc3)c3ccc(F)cc32)c1C` [Compound 13, N-[2-(diethylamino)ethyl]-5-[(5-fluoro-2-oxo-1-(p-methoxyphenylcarboxymethyl)-2,3-indolin-3-ylmethylene)]-2,4-dimethyl-1H-pyrrolidine-3-carboxamide], for which the IC50 in data set [1] was found to be 3 µM.

What is called half-life is the time needed for the level to fall by half in the phase considered. As usually defined, the Tmax is the time at which the peak concentration occurs. Usually clearance stands for the volume of plasma or blood freed of the substance per unit of time. In general, AUC refers to concentration integrated over time. The term bioavailability denotes dose-corrected exposure relative to a reference, in per cent. The AUC(0-inf) is total exposure, with the tail of the curve extrapolated. What is called Cmax is the maximum level reached in the sampled fluid or tissue. In [2] (5.14 mg/kg), `CCN(CC)CCNC(=O)c1c(C)[nH]c(/C=C2\C(=O)Nc3ccc(F)cc32)c1C.O=C(O)C[C@H](O)C(=O)O` [Sunitinib, reference compound] gave a half-life of 74.4 min. Besides, in [2] (iv, 5.14 mg/kg), the time of peak concentration (Tmax) worked out at 4.8 min and the clearance is 4.51 mL/min. This compound returned an AUC in data set [2] (iv, 5.14 mg/kg, AUCall) of 365 ng·h/mL. The compound further registered an AUC in data set [2] (iv, AUCiv) of 365 ng·h/mL. In the data set “in vivo”, this compound came in with a bioavailability of 15%. Moreover, in the data set “in vivo” (po), the AUC came out at 214 ng·h/mL and the bioavailability turned out to be 15.1%. In “in vivo” (po, 20 mg/kg), the AUC(0-inf) amounted to 43.1 ng·h/mL, the highest level (Cmax) was 9.58 ng/mL, the Tmax was 30 min and the half-life is 284 min. In addition, the “inhibition of pSTAT3” value with pSTAT3 is “strong inhibition”. The “tumor killing effects / cytotoxicity” value in [3] was “relatively strong tumor killing effects”. Besides, the “IC50 values among several cell lines” value in [3] (72 hours, CCK8, FIG. 5a-f) is “comparable”. Moreover, in the data set on 786-O cell or A549 cell, the cell survival result was “did not affect cell survival”; the cell morphology entry was “remained attached, elongate, and did not exhibit abnormal morphology”. In data set [4] (setting [6]), the blood glucose entry was “decreased”; the “levels of aspartate transaminase (AST) alanine aminotransferase (ALT) and cholinesterase (CHE)” value is “significantly elevated”; the “levels of lactate dehydrogenase (LDH), creatine kinase (CK) and creatine kinase-MB (CKMB)” value was “elevated”; the “levels of urate and blood urea nitrogen” value was “increased”. In data set [4] (oral once a day for 14 days, 28 mg/kg and 70 mg/kg), the “effects on the body weights” value was “little effects”. For the same compound, in data set [4] (setting [7]), the “average body weight reduce” value amounted to 17.6% and the “condition of the mice” value was “extremely weak”. In addition, in [4] (repeated test, oral once a day, 100 mg/kg), the “influence on body weight” value is “body weights did not increase”. In data set [4] (setting [8]), the “average body weight reduce” value was 20% and the “condition of the mice” value is recorded as “extremely weak”.

As for `CCN(CC)CCNC(=O)c1c(C)[nH]c(/C=C2\C(=O)N(COC(=O)C3CCCCC3)c3ccc(F)cc32)c1C` [Compound 9, N-[2-(diethylamino)ethyl]-5-[(5-fluoro-2-oxo-1-(cyclohexylcarboxymethyl)-2,3-indolin-3-ylmethylene)]-2,4-dimethyl-1H-pyrrolidine-3-carboxamide], it took 4 µM to reach half-maximal inhibition in [1] (IC50).

For the compound `CCN(CC)CCNC(=O)c1c(C)[nH]c(/C=C2\C(=O)N(COC(=O)OC(C)(C)C)c3ccc(F)cc32)c1C` [Compound 7, N-[2-(diethylamino)ethyl]-5-[(5-fluoro-2-oxo-1-(t-butoxycarboxymethyl)-2,3-indolin-3-ylmethylene)]-2,4-dimethyl-1H-pyrrolidine-3-carboxamide], in data set [1], the 50% inhibitory concentration (IC50) was determined as 1.79 µM.

The compound `CCN(CC)CCNC(=O)c1c(C)[nH]c(/C=C2\C(=O)N(COC(=O)C(C)C)c3ccc(F)cc32)c1C` [Compound 12, N-[2-(diethylamino)ethyl]-5-[(5-fluoro-2-oxo-1-(isopropylcarboxymethyl)-2,3-indolin-3-ylmethylene)]-2,4-dimethyl-1H-pyrrolidine-3-carboxamide] had an IC50 in data set [1] of 9.07 µM.

On to `CCOC(=O)OCN1C(=O)/C(=C\c2[nH]c(C)c(C(=O)NCCN(CC)CC)c2C)c2cc(F)ccc21` [Compound 8], for which the IC50 in [1] worked out at 1.11 µM.

Take `CCN(CC)CCNC(=O)c1c(C)[nH]c(C=C2C(=O)N(CC(=O)OC(C)(C)C)c3ccc(F)cc32)c1C` [Compound 1, N-[2-(diethylamino)ethyl]-5-[(5-fluoro-2-oxo-1-(t-butylcarboxymethyl)-2,3-indolin-3-ylmethylene)]-2,4-dimethyl-1H-pyrrolidine-3-carboxamide]: in [2] (iv), the AUCiv is 478.9; the Cl was 267.5 mL/h; the “Cmax, times than that of the control” value is on record as “approx. 5 times”; the “RTE analysis: distribution proportions in organs” value is “increased distribution proportions in liver and spleen”. Moreover, in data set [2] (iv), the Tmax worked out at 4.8 min. In “in vivo” (po), the AUCpo is listed as 946.2, the Cl came to 3848.9 mL/h, the time of peak concentration (Tmax) worked out at 30 min and the t1/2 amounted to 2.94 h. In addition, the “stability in the event of coexisting with biomass” value in data set [5] is reported as “easy to degrade”. In data set [3] (72 hours, CCK8, FIG. 5a-f), the “IC50 values among several cell lines” value was “comparable” and the “tumor killing effects / cytotoxicity” value is on record as “relatively strong tumor killing effects”. In addition, in the data set with 786-O cell or A549 cell, the cell survival entry was “mass cell death”; the cell morphology result was “changed to round and suffered from stress”. Also, in the data set on cancer cell xenograft, the “efficacy on tumor size” value was “less efficacy”.

For `CCN(CC)CCNC(=O)c1c(C)[nH]c(/C=C2\C(=O)N(COC(=O)C3CC3)c3ccc(F)cc32)c1C` [Compound 11], in data set [1], inhibition was half-maximal at 2.56 µM (IC50).

The compound `CCN(CC)CCNC(=O)c1c(C)[nH]c(/C=C2\C(=O)N(COC(C)=O)c3ccc(F)cc32)c1C` [Compound 10] returned an IC50 in [1] of 7.46 µM.

In data set [1], `CCN(CC)CCNC(=O)c1c(C)[nH]c(/C=C2\C(=O)N(COC(=O)N(C)C)c3ccc(F)cc32)c1C` [Compound 6, N-[2-(diethylamino)ethyl]-5-[(5-fluoro-2-oxo-1-(N,N-dimethylaminocarboxymethyl)-2,3-indolin-3-ylmethylene)]-2,4-dimethyl-1H-pyrrolidine-3-carboxamide] had an IC50 of 8.46 µM.

The record behind these values is US20180022734A1 (Sound Biopharmaceuticals Ltd., priority 2015, published 2018).
